Laboratory results taken from ChEMBL document CHEMBL1147216, “Parallel synthesis and SAR study of novel oxa-steroids as potent and selective progesterone receptor antagonists” (Bioorg Med Chem Lett, 2007).

Columns and labels:
Glucocorticoid receptor = target: T1, Glucocorticoid receptor (Homo sapiens, UniProt P04150); experiment: Antagonist activity at human glucocorticoid receptor assessed as inhibition of corticoid-induced transcription in human A549 cells by GRE-linked luciferase reporter gene assay; type: functional, cell-based
T1 sequence (P04150 whole entry): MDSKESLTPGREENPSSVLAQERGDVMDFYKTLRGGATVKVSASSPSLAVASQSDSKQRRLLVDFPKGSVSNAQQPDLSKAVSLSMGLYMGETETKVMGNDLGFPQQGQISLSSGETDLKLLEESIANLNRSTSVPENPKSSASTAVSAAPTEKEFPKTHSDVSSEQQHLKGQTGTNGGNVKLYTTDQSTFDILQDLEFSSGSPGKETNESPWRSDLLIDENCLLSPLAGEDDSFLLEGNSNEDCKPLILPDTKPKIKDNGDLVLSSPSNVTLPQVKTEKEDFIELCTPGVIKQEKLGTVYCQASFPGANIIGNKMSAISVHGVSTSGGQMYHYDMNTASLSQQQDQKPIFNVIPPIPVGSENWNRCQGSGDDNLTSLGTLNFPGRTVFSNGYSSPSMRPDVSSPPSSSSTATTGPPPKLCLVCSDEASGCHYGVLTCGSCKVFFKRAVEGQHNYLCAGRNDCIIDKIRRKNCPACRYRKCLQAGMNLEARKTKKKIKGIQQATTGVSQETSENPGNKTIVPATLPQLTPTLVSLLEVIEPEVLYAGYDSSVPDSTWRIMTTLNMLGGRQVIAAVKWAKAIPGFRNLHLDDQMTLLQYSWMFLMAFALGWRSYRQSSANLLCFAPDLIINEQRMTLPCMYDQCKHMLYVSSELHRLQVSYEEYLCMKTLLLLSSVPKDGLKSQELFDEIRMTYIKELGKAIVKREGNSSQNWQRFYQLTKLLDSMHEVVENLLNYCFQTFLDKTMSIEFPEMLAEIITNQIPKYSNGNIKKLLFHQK

Progesterone receptor = target: T2, Progesterone receptor (Homo sapiens, UniProt P06401); experiment: Antagonist activity at human progesterone receptor assessed as inhibition of alkaline phosphatase activity in human T47D cells; type: functional, cell-based
T2 sequence (P06401 whole entry): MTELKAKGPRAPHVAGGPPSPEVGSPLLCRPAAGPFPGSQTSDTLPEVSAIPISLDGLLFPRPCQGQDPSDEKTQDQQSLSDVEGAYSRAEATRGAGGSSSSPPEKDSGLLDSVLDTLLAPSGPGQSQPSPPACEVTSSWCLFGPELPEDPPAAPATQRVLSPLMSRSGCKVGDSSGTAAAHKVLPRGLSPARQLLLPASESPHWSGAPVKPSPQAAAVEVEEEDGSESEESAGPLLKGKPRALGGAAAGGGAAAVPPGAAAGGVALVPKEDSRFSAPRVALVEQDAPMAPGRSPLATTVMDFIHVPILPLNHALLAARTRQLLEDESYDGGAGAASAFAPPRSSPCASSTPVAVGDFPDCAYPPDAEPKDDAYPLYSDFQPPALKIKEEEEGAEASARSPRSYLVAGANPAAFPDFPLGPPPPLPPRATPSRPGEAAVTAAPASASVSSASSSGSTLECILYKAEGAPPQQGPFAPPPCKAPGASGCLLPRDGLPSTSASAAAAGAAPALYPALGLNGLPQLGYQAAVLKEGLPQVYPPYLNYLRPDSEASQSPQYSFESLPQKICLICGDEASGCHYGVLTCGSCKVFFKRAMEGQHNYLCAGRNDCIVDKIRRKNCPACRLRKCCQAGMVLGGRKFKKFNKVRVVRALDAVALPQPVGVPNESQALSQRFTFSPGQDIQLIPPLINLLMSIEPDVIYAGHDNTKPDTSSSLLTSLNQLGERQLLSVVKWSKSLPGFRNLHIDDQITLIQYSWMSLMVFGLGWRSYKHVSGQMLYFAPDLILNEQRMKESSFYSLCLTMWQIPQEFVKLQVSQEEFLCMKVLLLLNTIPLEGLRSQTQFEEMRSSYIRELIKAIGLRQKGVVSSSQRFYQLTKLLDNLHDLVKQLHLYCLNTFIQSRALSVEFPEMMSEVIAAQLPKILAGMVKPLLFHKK

Homo sapiens = species: Homo sapiens; experiment: Selectivity of human progesterone receptor over human glucocorticoid receptor

IC50 (Glucocorticoid receptor)	IC50 (Progesterone receptor)	Ratio IC50 (Homo sapiens)	SMILES
113 nM	5.8 nM	20	Cc1ccccc1C#C[C@]1(O)CC[C@H]2[C@@H]3OCC4=CC(=O)CCC4=C3[C@@H](c3ccc(N(C)C)cc3)C[C@@]21C
31.3 nM	0.94 nM	33	CN(C)c1ccc([C@H]2C[C@@]3(C)[C@@H](CC[C@@]3(O)C#Cc3ccc(Br)cc3)[C@@H]3OCC4=CC(=O)CCC4=C32)cc1
41.3 nM	3.7 nM	11	CN(C)c1ccc([C@H]2C[C@@]3(C)[C@@H](CC[C@@]3(O)C#Cc3ccc(C#N)cc3)[C@@H]3OCC4=CC(=O)CCC4=C32)cc1
37.6 nM	0.27 nM	139	CN(C)c1ccc([C@H]2C[C@@]3(C)[C@@H](CC[C@@]3(O)C#Cc3ccc(F)cc3)[C@@H]3OCC4=CC(=O)CCC4=C32)cc1
34.4 nM	0.91 nM	38	CN(C)c1ccc([C@H]2C[C@@]3(C)[C@@H](CC[C@@]3(O)C#Cc3cc(F)cc(F)c3)[C@@H]3OCC4=CC(=O)CCC4=C32)cc1
48.9 nM	12.5 nM	4	CN(C)c1ccc([C@H]2C[C@@]3(C)[C@@H](CC[C@@]3(O)C#Cc3cccc(Cl)c3)[C@@H]3OCC4=CC(=O)CCC4=C32)cc1
64.8 nM	1.1 nM	59	CN(C)c1ccc([C@H]2C[C@@]3(C)[C@@H](CC[C@@]3(O)C#Cc3ccccc3Cl)[C@@H]3OCC4=CC(=O)CCC4=C32)cc1
45.4 nM	2.7 nM	17	CN(C)c1ccc([C@H]2C[C@@]3(C)[C@@H](CC[C@@]3(O)C#Cc3cccc(C(F)(F)F)c3)[C@@H]3OCC4=CC(=O)CCC4=C32)cc1
		12	CC#C[C@]1(O)CC[C@H]2[C@@H]3OCC4=CC(=O)CCC4=C3[C@@H](c3ccc(N(C)C)cc3)C[C@@]21C
80.3 nM	3.2 nM	25	COc1ccc(C#C[C@]2(O)CC[C@H]3[C@@H]4OCC5=CC(=O)CCC5=C4[C@@H](c4ccc(N(C)C)cc4)C[C@@]32C)cc1
65.1 nM	1.4 nM	47	CN(C)c1ccc([C@H]2C[C@@]3(C)[C@@H](CC[C@@]3(O)C#Cc3ccccc3F)[C@@H]3OCC4=CC(=O)CCC4=C32)cc1
		217	CN(C)c1ccc([C@H]2C[C@@]3(C)[C@@H](CC[C@@]3(O)C#Cc3ccccc3)[C@@H]3OCC4=CC(=O)CCC4=C32)cc1
62.7 nM	8.6 nM	7	CN(C)c1ccc([C@H]2C[C@@]3(C)[C@@H](CC[C@@]3(O)C#Cc3ccccc3Br)[C@@H]3OCC4=CC(=O)CCC4=C32)cc1
51 nM	3.2 nM	16	CN(C)c1ccc([C@H]2C[C@@]3(C)[C@@H](CC[C@@]3(O)C#Cc3ccccc3C(F)(F)F)[C@@H]3OCC4=CC(=O)CCC4=C32)cc1
36.3 nM	2.9 nM	13	Cc1cccc(C#C[C@]2(O)CC[C@H]3[C@@H]4OCC5=CC(=O)CCC5=C4[C@@H](c4ccc(N(C)C)cc4)C[C@@]32C)c1
65.8 nM	19.5 nM	3	CN(C)c1ccc([C@H]2C[C@@]3(C)[C@@H](CC[C@@]3(O)C#Cc3ccc(C(C)(C)C)cc3)[C@@H]3OCC4=CC(=O)CCC4=C32)cc1
56.6 nM	1 nM	57	CN(C)c1ccc([C@H]2C[C@@]3(C)[C@@H](CC[C@@]3(O)C#Cc3cccc(F)c3)[C@@H]3OCC4=CC(=O)CCC4=C32)cc1
43.5 nM	0.61 nM	71	CN(C)c1ccc([C@H]2C[C@@]3(C)[C@@H](CC[C@@]3(O)C#Cc3ccc(Cl)cc3)[C@@H]3OCC4=CC(=O)CCC4=C32)cc1
111 nM	0.75 nM	148	CN(C)c1ccc([C@H]2C[C@@]3(C)[C@@H](CC[C@@]3(O)C#Cc3ccc(C(F)(F)F)cc3)[C@@H]3OCC4=CC(=O)CCC4=C32)cc1

SMILES	IC50 (Glucocorticoid receptor)	IC50 (Progesterone receptor)	Ratio IC50 (Homo sapiens)
CN(C)c1ccc([C@H]2C[C@@]3(C)[C@@H](CC[C@@]3(O)C#Cc3ccncc3)[C@@H]3OCC4=CC(=O)CCC4=C32)cc1	247 nM	39 nM	6
CN(C)c1ccc([C@H]2C[C@@]3(C)[C@@H](CC[C@@]3(O)C#Cc3cccnc3)[C@@H]3OCC4=CC(=O)CCC4=C32)cc1	342 nM	21 nM	16
Cc1ccc(C#C[C@]2(O)CC[C@H]3[C@@H]4OCC5=CC(=O)CCC5=C4[C@@H](c4ccc(N(C)C)cc4)C[C@@]32C)cc1	22.1 nM	1.6 nM	14
CN(C)c1ccc([C@H]2C[C@@]3(C)[C@@H](CC[C@@]3(O)C#Cc3ccccn3)[C@@H]3OCC4=CC(=O)CCC4=C32)cc1	175 nM	34 nM	5
CN(C)c1ccc([C@H]2C[C@@]3(C)[C@@H](CC[C@@]3(O)C#Cc3ccsc3)[C@@H]3OCC4=CC(=O)CCC4=C32)cc1	56 nM	1.6 nM	35
